Measurements published in PubChem BioAssay AID1259407 (Chemical Carcinogenesis Research Information System (CCRIS), 2018).
Active and inactive are the calls of the source. The rule behind the calls is not given here.

Tested on: CCRIS mutagenicity, Ames/micronucleus/aberration tests
Test: CCRIS mutagenicity studies

Measured: mutagenic call

CC(C)CON=O
inactive: Test System: AMES SALMONELLA TYPHIMURIUM, Strain/Indicator: TA98, Metabolic Activation: HAMSTER, LIVER, S-9, AROCLOR 1254 (5 OR 10%), Method: PREINCUBATION inactive; negative | Test System: AMES SALMONELLA TYPHIMURIUM, Strain/Indicator: TA98, Metabolic Activation: HAMSTER, LIVER, S-9, AROCLOR 1254 (30%), Method: PREINCUBATION inactive; negative | Test System: AMES SALMONELLA TYPHIMURIUM, Strain/Indicator: TA98, Metabolic Activation: HAMSTER, LIVER, S-9, AROCLOR 1254, Method: STANDARD PLATE inactive; negative | Test System: AMES SALMONELLA TYPHIMURIUM, Strain/Indicator: TA98, Metabolic Activation: NONE, Method: DESICCATOR inactive; negative | Test System: AMES SALMONELLA TYPHIMURIUM, Strain/Indicator: TA98, Metabolic Activation: NONE, Method: FLUCTUATION (MICROTITER) inactive; negative | Test System: AMES SALMONELLA TYPHIMURIUM, Strain/Indicator: TA98, Metabolic Activation: NONE, Method: PREINCUBATION inactive; negative | Test System: AMES SALMONELLA TYPHIMURIUM, Strain/Indicator: TA98, Metabolic Activation: NONE, Method: STANDARD PLATE inactive; negative | Test System: AMES SALMONELLA TYPHIMURIUM, Strain/Indicator: TA98, Metabolic Activation: RAT LIVER S-9, AROCLOR 1254, Method: FLUCTUATION (MICROTITER) inactive; negative | Test System: AMES SALMONELLA TYPHIMURIUM, Strain/Indicator: TA98, Metabolic Activation: RAT, LIVER, S-9, AROCLOR 1254 (5 OR 10%), Method: PREINCUBATION inactive; negative | Test System: AMES SALMONELLA TYPHIMURIUM, Strain/Indicator: TA98, Metabolic Activation: RAT, LIVER, S-9, AROCLOR 1254 (30%), Method: PREINCUBATION inactive; negative | Test System: AMES SALMONELLA TYPHIMURIUM, Strain/Indicator: TA98, Metabolic Activation: RAT, LIVER, S-9, AROCLOR 1254, Method: DESICCATOR inactive; negative | Test System: AMES SALMONELLA TYPHIMURIUM, Strain/Indicator: TA98, Metabolic Activation: RAT, LIVER, S-9, AROCLOR 1254, Method: STANDARD PLATE inactive; negative | Test System: AMES SALMONELLA TYPHIMURIUM, Strain/Indicator: TA100, Metabolic Activation: NONE, Method: PREINCUBATION inactive; negative | Test System: AMES SALMONELLA TYPHIMURIUM, Strain/Indicator: TA1535, Metabolic Activation: RAT, LIVER, S-9, AROCLOR 1254 (10%), Method: PREINCUBATION inactive; negative | Test System: AMES SALMONELLA TYPHIMURIUM, Strain/Indicator: TA1537, Metabolic Activation: HAMSTER, LIVER, S-9, AROCLOR 1254 (10%), Method: PREINCUBATION inactive; negative | Test System: AMES SALMONELLA TYPHIMURIUM, Strain/Indicator: TA1537, Metabolic Activation: HAMSTER, LIVER, S-9, AROCLOR 1254, Method: STANDARD PLATE inactive; negative | Test System: AMES SALMONELLA TYPHIMURIUM, Strain/Indicator: TA1537, Metabolic Activation: NONE, Method: FLUCTUATION (MICROTITER) inactive; negative | Test System: AMES SALMONELLA TYPHIMURIUM, Strain/Indicator: TA1537, Metabolic Activation: NONE, Method: PREINCUBATION inactive; negative | Test System: AMES SALMONELLA TYPHIMURIUM, Strain/Indicator: TA1537, Metabolic Activation: NONE, Method: STANDARD PLATE inactive; negative | Test System: AMES SALMONELLA TYPHIMURIUM, Strain/Indicator: TA1537, Metabolic Activation: RAT LIVER S-9, AROCLOR 1254, Method: FLUCTUATION (MICROTITER) inactive; negative | Test System: AMES SALMONELLA TYPHIMURIUM, Strain/Indicator: TA1537, Metabolic Activation: RAT, LIVER, S-9, AROCLOR 1254 (10%), Method: PREINCUBATION inactive; negative | Test System: AMES SALMONELLA TYPHIMURIUM, Strain/Indicator: TA1537, Metabolic Activation: RAT, LIVER, S-9, AROCLOR 1254, Method: STANDARD PLATE inactive; negative | Test System: AMES SALMONELLA TYPHIMURIUM, Strain/Indicator: TA7001, Metabolic Activation: NONE, Method: FLUCTUATION (MICROTITER) inactive; negative | Test System: AMES SALMONELLA TYPHIMURIUM, Strain/Indicator: TA7001, Metabolic Activation: RAT LIVER S-9, AROCLOR 1254, Method: FLUCTUATION (MICROTITER) inactive; negative | Test System: AMES SALMONELLA TYPHIMURIUM, Strain/Indicator: TA7002, Metabolic Activation: NONE, Method: FLUCTUATION (MICROTITER) inactive; negative | Test System: AMES SALMONELLA TYPHIMURIUM, Strain/Indicator: TA7002, Metabolic Activation: RAT LIVER S-9, AROCLOR 1254, Method: FLUCTUATION (MICROTITER) inactive; negative | Test System: AMES SALMONELLA TYPHIMURIUM, Strain/Indicator: TA7003, Metabolic Activation: NONE, Method: FLUCTUATION (MICROTITER) inactive; negative | Test System: AMES SALMONELLA TYPHIMURIUM, Strain/Indicator: TA7003, Metabolic Activation: RAT LIVER S-9, AROCLOR 1254, Method: FLUCTUATION (MICROTITER) inactive; negative | Test System: AMES SALMONELLA TYPHIMURIUM, Strain/Indicator: TA7004, Metabolic Activation: NONE, Method: FLUCTUATION (MICROTITER) inactive; negative | Test System: AMES SALMONELLA TYPHIMURIUM, Strain/Indicator: TA7004, Metabolic Activation: RAT LIVER S-9, AROCLOR 1254, Method: FLUCTUATION (MICROTITER) inactive; negative | Test System: AMES SALMONELLA TYPHIMURIUM, Strain/Indicator: TA7005, Metabolic Activation: NONE, Method: FLUCTUATION (MICROTITER) inactive; negative | Test System: AMES SALMONELLA TYPHIMURIUM, Strain/Indicator: TA7005, Metabolic Activation: RAT LIVER S-9, AROCLOR 1254, Method: FLUCTUATION (MICROTITER) inactive; negative | Test System: AMES SALMONELLA TYPHIMURIUM, Strain/Indicator: TA7006, Metabolic Activation: NONE, Method: FLUCTUATION (MICROTITER) inactive; negative | Test System: AMES SALMONELLA TYPHIMURIUM, Strain/Indicator: TA7006, Metabolic Activation: RAT LIVER S-9, AROCLOR 1254, Method: FLUCTUATION (MICROTITER) inactive; negative
active: Test System: AMES SALMONELLA TYPHIMURIUM, Strain/Indicator: TA100, Metabolic Activation: HAMSTER, LIVER, S-9, AROCLOR 1254 (10%), Method: PREINCUBATION active; positive | Test System: AMES SALMONELLA TYPHIMURIUM, Strain/Indicator: TA100, Metabolic Activation: HAMSTER, LIVER, S-9, AROCLOR 1254 (30%), Method: PREINCUBATION active; positive | Test System: AMES SALMONELLA TYPHIMURIUM, Strain/Indicator: TA100, Metabolic Activation: HAMSTER, LIVER, S-9, AROCLOR 1254, Method: STANDARD PLATE active; positive | Test System: AMES SALMONELLA TYPHIMURIUM, Strain/Indicator: TA100, Metabolic Activation: NONE, Method: STANDARD PLATE active; positive | Test System: AMES SALMONELLA TYPHIMURIUM, Strain/Indicator: TA100, Metabolic Activation: RAT, LIVER, S-9, AROCLOR 1254 (10%), Method: PREINCUBATION active; positive | Test System: AMES SALMONELLA TYPHIMURIUM, Strain/Indicator: TA100, Metabolic Activation: RAT, LIVER, S-9, AROCLOR 1254 (30%), Method: PREINCUBATION active; positive | Test System: AMES SALMONELLA TYPHIMURIUM, Strain/Indicator: TA100, Metabolic Activation: RAT, LIVER, S-9, AROCLOR 1254, Method: DESICCATOR active; positive | Test System: AMES SALMONELLA TYPHIMURIUM, Strain/Indicator: TA100, Metabolic Activation: RAT, LIVER, S-9, AROCLOR 1254, Method: STANDARD PLATE active; positive | Test System: AMES SALMONELLA TYPHIMURIUM, Strain/Indicator: TA1535, Metabolic Activation: HAMSTER, LIVER, S-9, AROCLOR 1254 (10%), Method: PREINCUBATION active; positive | Test System: AMES SALMONELLA TYPHIMURIUM, Strain/Indicator: TA1535, Metabolic Activation: HAMSTER, LIVER, S-9, AROCLOR 1254 (30%), Method: PREINCUBATION active; positive | Test System: AMES SALMONELLA TYPHIMURIUM, Strain/Indicator: TA1535, Metabolic Activation: HAMSTER, LIVER, S-9, AROCLOR 1254, Method: STANDARD PLATE active; positive | Test System: AMES SALMONELLA TYPHIMURIUM, Strain/Indicator: TA1535, Metabolic Activation: NONE, Method: DESICCATOR active; positive | Test System: AMES SALMONELLA TYPHIMURIUM, Strain/Indicator: TA1535, Metabolic Activation: NONE, Method: STANDARD PLATE active; positive | Test System: AMES SALMONELLA TYPHIMURIUM, Strain/Indicator: TA1535, Metabolic Activation: RAT, LIVER, S-9, AROCLOR 1254 (30%), Method: PREINCUBATION active; positive | Test System: AMES SALMONELLA TYPHIMURIUM, Strain/Indicator: TA1535, Metabolic Activation: RAT, LIVER, S-9, AROCLOR 1254, Method: DESICCATOR active; positive | Test System: AMES SALMONELLA TYPHIMURIUM, Strain/Indicator: TA1535, Metabolic Activation: RAT, LIVER, S-9, AROCLOR 1254, Method: PREINCUBATION active; positive | Test System: AMES SALMONELLA TYPHIMURIUM, Strain/Indicator: TA1535, Metabolic Activation: RAT, LIVER, S-9, AROCLOR 1254, Method: STANDARD PLATE active; positive | Test System: MOUSE LYMPHOMA, Strain/Indicator: L5178Y (TK+/TK-), Metabolic Activation: NONE, Method: SUSPENSION/PLATE active; positive | Test System: MOUSE LYMPHOMA, Strain/Indicator: L5178Y (TK+/TK-), Metabolic Activation: RAT, LIVER, S-9, AROCLOR 1254, Method: SUSPENSION/PLATE active; positive | Test System: Mouse lymphoma, Strain/Indicator: L5178Y (tk+/tk-), Metabolic Activation: Rat, Liver, S-9, Aroclor 1254, Method: Suspension/plate active; positive
